One assay concerns the target JAK2 (Homo sapiens (Human), UniProt O60674). The experiment in a line: Jak Biochemical HTRF Assay, JAK2. As to conditions: HTRF biochemical assay, GST-tagged catalytic domain; top concentration tested […]. The source says:
(§1) Jak Biochemical HTRF Assay Protocol
(§2) Subsequent reagent additions employed an Agilent Bravo.
A general note: TR-FRET usually uses a lanthanide donor and a delayed reading to cut background.

A further assay has as its target JAK1 (Homo sapiens (Human), UniProt P23458). The experiment in a line: Jak Biochemical HTRF Assay, JAK1. The note with it: HTRF biochemical assay, GST-tagged catalytic domain; top concentration tested […]; read-out: JAK1 IC50.
Description: as §1, §2

Sequence of JAK1 (P23458 875-1153): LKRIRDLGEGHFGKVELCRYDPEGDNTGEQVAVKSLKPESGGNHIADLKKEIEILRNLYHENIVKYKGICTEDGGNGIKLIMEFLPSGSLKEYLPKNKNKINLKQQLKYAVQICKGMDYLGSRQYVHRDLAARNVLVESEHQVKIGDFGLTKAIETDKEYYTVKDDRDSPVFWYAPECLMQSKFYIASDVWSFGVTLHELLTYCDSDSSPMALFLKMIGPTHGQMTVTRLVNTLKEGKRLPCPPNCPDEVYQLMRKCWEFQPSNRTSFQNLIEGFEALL
Sequence of JAK2 (O60674 849-1124): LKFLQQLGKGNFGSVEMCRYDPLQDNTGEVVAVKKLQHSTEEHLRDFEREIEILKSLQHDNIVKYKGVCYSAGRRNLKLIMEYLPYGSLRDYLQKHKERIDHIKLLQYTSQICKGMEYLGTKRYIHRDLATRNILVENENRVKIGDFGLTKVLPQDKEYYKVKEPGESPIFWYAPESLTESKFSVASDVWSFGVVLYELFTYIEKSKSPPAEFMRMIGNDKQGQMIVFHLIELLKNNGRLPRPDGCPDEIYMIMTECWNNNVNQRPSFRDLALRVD

By IC50 is commonly meant the concentration at which inhibition is half-maximal. In the case of `N#CCC1(n2cc(C(N)=O)c(Nc3ccccc3)n2)CCN(C(=O)c2ccccc2-c2ccccc2)CC1` [Example 34-29, 1-[1-(biphenyl-2-ylcarbonyl)-4-(cyanomethyl)piperidin-4-yl]-3-(phenylamino)-1H-pyrazole-4-carboxamide], the IC50 amounted to 1480 nM on JAK2 and 387 nM on JAK1.

Consider `N#CCC1(n2cc(C(N)=O)c(Nc3ccc(F)cc3)n2)CCN(c2ccc(C(F)(F)F)nc2)CC1` [Example 3-28, 1-{4-(cyanomethyl)-1-[6-(trifluoromethyl)pyridin-3-yl]piperidin-4-yl}-3-[(4-fluorophenyl)amino]-1H-pyrazole-4-carboxamide], for which the IC50 was 26 nM against JAK2 and 0.6 nM at JAK1.

For the compound `C/C=C/C(=O)N1CCC(CC#N)(n2cc(C(N)=O)c(Nc3ccccc3)n2)CC1` [Example 33-2, 1-{1-[(2E)-but-2-enoyl]-4-(cyanomethyl)piperidin-4-yl}-3-(phenylamino)-1H-pyrazole-4-carboxamide], the IC50 against JAK2 was found to be 64 nM; on JAK1, 2 nM.

Consider `COc1cncc(N2CCC(CC#N)(n3cc(C(N)=O)c(Nc4ccc(F)cc4)n3)CC2)c1` [Example 3-37, 1-[4-(cyanomethyl)-1-(5-methoxypyridin-3-yl)piperidin-4-yl]-3-[(4-fluorophenyl)amino]-1H-pyrazole-4-carboxamide], for which the IC50 on JAK2 was found to be 17 nM; at JAK1 it was 0.6 nM.

As to `COCC(=O)N1CCC(CC#N)(n2cc(C(N)=O)c(Nc3ccccc3)n2)CC1` [Example 34-2, 1-[4-(cyanomethyl)-1-(methoxyacetyl)piperidin-4-yl]-3-(phenylamino)-1H-pyrazole-4-carboxamide], the values for the IC50 on JAK2 and at JAK1 were 93 nM and 5 nM, respectively.

As to `N#CCC1(n2cc(C(N)=O)c(Nc3ccc(F)cc3)n2)CCC(Nc2cccnc2)CC1` (stereo not drawn) [Example 40-75, Cis or trans 1-[1-(cyanomethyl)-4-(pyridin-3-ylamino)cyclohexyl]-3-[(4-fluorophenyl)amino]-1H-pyrazole-4-carboxamide], the IC50 amounted to 7 nM on JAK2 and 0.2 nM at JAK1.

Take `CC(=O)N1CC(CC#N)(n2cc(C(N)=O)c(Nc3ccccc3)n2)C1` [Example 32, 1-[1-Acetyl-3-(cyanomethyl)azetidin-3-yl]-3-(phenylamino)-1H-pyrazole-4-carboxamide]: the results for the IC50 on JAK2 and on JAK1 were 510 nM and 94 nM, respectively.

With `CC(C)(C)OC(=O)N1CC[C@](CC#N)(n2cc(C(N)=O)c(Nc3ccc(F)cc3)n2)[C@@H](F)C1` (racemic) [Example 6-3, tert-butyl (3S,4R and 3R,4S)-4-{4-carbamoyl-3-[(4-fluorophenyl)amino]-1H-pyrazol-1-yl}-4-(cyanomethyl)-3-fluoropiperidine-1-carboxylate], the results for the IC50 against JAK2 and on JAK1 were 25 nM and 1 nM, respectively.

As to `COC1CN(C2CCC(CC#N)(n3cc(C(N)=O)c(Nc4ccnc(F)c4)n3)CC2)C1` (stereo not drawn) [Example 40-94, Cis or trans 1-[1-(cyanomethyl)-4-(3-methoxyazetidin-1-yl)cyclohexyl]-3-[(2-fluoropyridin-4-yl)amino]-1H-pyrazole-4-carboxamide], the IC50 against JAK2 is > 1500 nM; on JAK1, 234 nM.

As for `CCCNC(=O)N1CC(CC#N)(n2cc(C(N)=O)c(Nc3ccccc3)n2)C1` [Example 38-18, 1-[3-(cyanomethyl)-1-(propylcarbamoyl)azetidin-3-yl]-3-(phenylamino)-1H-pyrazole-4-carboxamide], the IC50 stood at 106 nM against JAK2 and 7 nM at JAK1.

Regarding `Cc1ccc(CN2CCC(CC#N)(n3cc(C(N)=O)c(Nc4ccccc4)n3)CC2)cc1` [Example 21-7, 1-[4-(cyanomethyl)-1-(4-methylbenzyl)piperidin-4-yl]-3-(phenylamino)-1H-pyrazole-4-carboxamide], the IC50 came out at 135 nM against JAK2 and 11 nM on JAK1.

Take `CCOc1cccc(N2CCC(CC#N)(n3cc(C(N)=O)c(Nc4ccc(F)cc4)n3)CC2)n1` [Example 3-16, 1-[4-(cyanomethyl)-1-(6-ethoxypyridin-2-yl)piperidin-4-yl]-3-[(4-fluorophenyl)amino]-1H-pyrazole-4-carboxamide]: the figures for the IC50 on JAK2 and on JAK1 were 861 nM and 45 nM, respectively.

As for `CCCCNC(=O)N1CC(CC#N)(n2cc(C(N)=O)c(Nc3ccc(S(C)(=O)=O)cc3)n2)C1` [Example 38-43, 1-[1-(butylcarbamoyl)-3-(cyanomethyl)azetidin-3-yl]-3-{[4-(methylsulfonyl)phenyl]amino}-1H-pyrazole-4-carboxamide], the IC50 against JAK2 worked out at 322 nM; at JAK1 it was 20 nM.

Consider `CC1(C)CC(CN2CCC(CC#N)(n3cc(C(N)=O)c(Nc4ccnc(F)c4)n3)CC2)CCO1` (centres unmarked) [Example 22-16, 1-{4-(cyanomethyl)-1-[(2,2-dimethyltetrahydro-2H-pyran-4-yl)methyl]piperidin-4-yl}-3-[(2-fluoropyridin-4-yl)amino]-1H-pyrazole-4-carboxamide], for which the results for the IC50 against JAK2 and at JAK1 were 122 nM and 5 nM, respectively.

As to `N#CCC1(n2cc(C(N)=O)c(Nc3ccc(F)cc3)n2)CCC(N2CCC(O)CC2)CC1` (stereo not drawn) [Example 40-41, Cis or trans 1-[1-(cyanomethyl)-4-(4-hydroxypiperidin-1-yl)cyclohexyl]-3-[(4-fluorophenyl)amino]-1H-pyrazole-4-carboxamide], the IC50 is > 1500 nM on JAK2 and 584 nM at JAK1.

With `Cc1ccccc1NC(=O)N1CC(CC#N)(n2cc(C(N)=O)c(Nc3ccccc3)n2)C1` [Example 38-27, 1-{3-(cyanomethyl)-1-[(2-methylphenyl)carbamoyl]azetidin-3-yl}-3-(phenylamino)-1H-pyrazole-4-carboxamide], the IC50 against JAK2 was found to be 162 nM; on JAK1 it was 11 nM.

In the case of `N#CCC1(n2cc(C(N)=O)c(Nc3ccccc3)n2)CCN(S(=O)(=O)c2ccc(-c3ccccc3)cc2)CC1` [Example 37-14, 1-[1-(biphenyl-4-ylsulfonyl)-4-(cyanomethyl)piperidin-4-yl]-3-(phenylamino)-1H-pyrazole-4-carboxamide], the IC50 was found to be 24 nM at JAK2 and 5 nM on JAK1.

Regarding `N#CCC1(n2cc(C(N)=O)c(Nc3ccccc3)n2)CN(C(=O)OCCCc2cccnc2)C1` [Example 30-68, 3-pyridin-3-ylpropyl 3-[4-carbamoyl-3-(phenylamino)-1H-pyrazol-1-yl]-3-(cyanomethyl)azetidine-1-carboxylate], the results for the IC50 at JAK2 and at JAK1 were 445 nM and 45 nM, respectively.

Turning to `N#CCC1(n2cc(C(N)=O)c(Nc3ccnc(F)c3)n2)CCC(NCC(F)(F)F)CC1` (stereo not drawn) [Example 40-93, Cis or trans 1-{1-(cyanomethyl)-4-[(2,2,2-trifluoroethyl)amino]cyclohexyl}-3-[(2-fluoropyridin-4-yl)amino]-1H-pyrazole-4-carboxamide], the IC50 at JAK2 is > 1500 nM; at JAK1, 166 nM.

For the compound `N#CCC1(n2cc(C(N)=O)c(Nc3ccc(F)cc3)n2)CCC(N2CCC(F)(F)CC2)CC1` (stereo not drawn) [Example 40-70, Cis or trans 1-[1-(cyanomethyl)-4-(4,4-difluoropiperidin-1-yl)cyclohexyl]-3-[(4-fluorophenyl)amino]-1H-pyrazole-4-carboxamide], the IC50 at JAK2 amounted to 9 nM; at JAK1, 0.2 nM.

Turning to `N#CCC1(n2cc(C(N)=O)c(Nc3ccc(F)cc3)n2)CCC(Nc2cccc(F)c2)CC1` (stereo not drawn) [Example 40-16, Cis or trans 1-{1-(cyanomethyl)-4-[(3-fluorophenyl)amino]cyclohexyl}-3-[(4-fluorophenyl)amino]-1H-pyrazole-4-carboxamide], the IC50 against JAK2 stood at 18 nM; on JAK1, 0.3 nM.

In the case of `N#CCC1(n2cc(C(N)=O)c(Nc3ccccc3)n2)CCN(C(=O)OCc2ccncc2)CC1` [Example 30-40, pyridin-4-ylmethyl 4-[4-carbamoyl-3-(phenylamino)-1H-pyrazol-1-yl]-4-(cyanomethyl)piperidine-1-carboxylate], the IC50 worked out at 58 nM at JAK2 and 2 nM at JAK1.

Take `N#CCC1(n2cc(C(N)=O)c(Nc3ccc(F)cc3)n2)CCN(Cc2ccc3[nH]ccc3c2)CC1` [Example 22-55, 1-[4-(cyanomethyl)-1-(1H-indol-5-ylmethyl)piperidin-4-yl]-3-[(4-fluorophenyl)amino]-1H-pyrazole-4-carboxamide]: the IC50 worked out at 53 nM against JAK2 and 4 nM on JAK1.

On to `N#CCC1(n2cc(C(N)=O)c(Nc3ccccc3)n2)CCN(Cc2c(F)cccc2F)CC1` [Example 21-23, 1-[4-(cyanomethyl)-1-(2,6-difluorobenzyl)piperidin-4-yl]-3-(phenylamino)-1H-pyrazole-4-carboxamide], for which the IC50 against JAK2 was 13 nM; at JAK1, 0.8 nM.

As to `CC(C)(C(=O)N1CCC(CC#N)(n2cc(C(N)=O)c(Nc3ccnc(F)c3)n2)CC1)C(F)(F)F` [Example 34-55, 1-[4-(cyanomethyl)-1-(3,3,3-trifluoro-2,2-dimethylpropanoyl)piperidin-4-yl]-3-[(2-fluoropyridin-4-yl)amino]-1H-pyrazole-4-carboxamide], the IC50 at JAK2 came to 28 nM; at JAK1 it was 1 nM.

Take `N#CCC1(n2cc(C(N)=O)c(Nc3ccnc(F)c3)n2)CCN(Cc2cnn3ccccc23)CC1` [Example 22-17]: the IC50 came to 503 nM against JAK2 and 17 nM at JAK1.

In the case of `CC(C)(CO)OC(=O)N1CCC(CC#N)(n2cc(C(N)=O)c(Nc3ccc(F)cc3)n2)CC1` [Example 29, 1-Hydroxy-2-methylpropan-2-yl 4-{4-carbamoyl-3-[(4-fluorophenyl)amino]-1H-pyrazol-1-yl}-4-(cyanomethyl)piperidine-1-carboxylate], the values for the IC50 on JAK2 and at JAK1 were 96 nM and 2 nM, respectively.

Turning to `CC(C)(C)OC(=O)N1CCC(CC#N)(n2cc(C(N)=O)c(Nc3cccc(-c4ccc(O)cc4)c3)n2)CC1` [Example 15-5, tert-butyl 4-{4-carbamoyl-3-[(4′-hydroxybiphenyl-3-yl)amino]-1H-pyrazol-1-yl}-4-(cyanomethyl)piperidine-1-carboxylate], the IC50 was determined as 293 nM against JAK2 and 14 nM on JAK1.
